Paper PMC2193020 (The Journal of Experimental Medicine, 1999)
Ends that are not written are not given here.

Experiments:
I-A^s = biological target: T1, I-A^s (Mus musculus, UniProt P06345+P14437); assay: Class II peptide binding assay on purified I-A^s molecules
T1 sequence (P14437 1-233): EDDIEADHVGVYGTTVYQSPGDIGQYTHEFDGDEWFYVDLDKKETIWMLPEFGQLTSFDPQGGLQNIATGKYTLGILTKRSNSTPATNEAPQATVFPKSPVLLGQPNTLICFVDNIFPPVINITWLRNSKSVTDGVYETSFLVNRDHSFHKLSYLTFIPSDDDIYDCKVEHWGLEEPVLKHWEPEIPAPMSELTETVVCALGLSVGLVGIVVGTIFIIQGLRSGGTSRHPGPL
T1 sequence (P06345 28-263): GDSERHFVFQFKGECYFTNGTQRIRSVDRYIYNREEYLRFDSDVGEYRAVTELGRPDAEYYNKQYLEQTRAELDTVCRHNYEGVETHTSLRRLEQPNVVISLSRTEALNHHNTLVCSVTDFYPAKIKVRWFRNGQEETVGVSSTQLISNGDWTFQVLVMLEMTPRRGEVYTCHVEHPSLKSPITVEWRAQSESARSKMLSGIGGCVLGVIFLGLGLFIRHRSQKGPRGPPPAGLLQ

[1] = test system: MBP autoantibodies affinity-purified from CNS lesions; settings: autoantibodies from CNS lesions of 12 postmortem MS cases; ref [19], [21]; cited from earlier work

Compound | IC50 (I-A^s) [nM] | Inhibition of autoantibody binding to MBP [1] [%]
CC[C@H](C)[C@H](NC(=O)[C@H](CC(N)=O)NC(=O)[C@H](CCCCN)NC(=O)[C@H](Cc1ccccc1)NC(=O)[C@H](Cc1ccccc1)NC(=O)[C@H](Cc1c[nH]cn1)NC(=O)[C@@H](NC(=O)[C@@H](NC(=O)[C@@H]1CCCN1C(=O)[C@H](CC(N)=O)NC(=O)[C@@H](N)CCC(=O)O)C(C)C)C(C)C)C(=O)N[C@H](C(=O)N[C@H](C(=O)N1CCC[C@H]1C(=O)N[C@@H](CCCNC(=N)N)C(=O)O)[C@@H](C)O)C(C)C [MBPp85–99, reference compound] | 667 | 
IGGRVHFFRDISPIG [HPV 40] | 180 | 
VHFFKNIVTPRTP [MBPp87–99] |  | > 95
IGGRVHFFKDISPIA [HPV 7] | 208 | 
CC(C)C[C@H](NC(=O)[C@H](CCCNC(=N)N)NC(=O)[C@H](CCCNC(=N)N)NC(=O)CNC(=O)CN)C(=O)N[C@@H](Cc1ccccc1)C(=O)N[C@@H](Cc1ccccc1)C(=O)N[C@H](C(=O)N[C@@H](CCCCN)C(=O)N[C@@H](C)C(=O)N[C@@H](Cc1c[nH]cn1)C(=O)N[C@H](C(=O)N[C@@H](CCCNC(=N)N)C(=O)N[C@@H](CCC(=O)O)C(=O)O)C(C)C)C(C)C [Herpes simplex DNA pol] | 551 | 
